# According to ChEMBL document CHEMBL1201862, “PubChem BioAssay data set” (2004):
#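 Dose response: 5 concentrations. Exposure: 48 h. Format: 96-well plates. Endpoint: linear interpolation; highest concentration if not reached. The concentration for 50% growth inhibition is given as GI50.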 The source made the active and inactive calls. Cut-off read from the data, not from the text of the source: active = GI50 up to about 1.1 µM and inactive = higher.
# How the values were obtained:
# Assay in all cases: inhibition of tumour cell growth, NCI panel, 48 h
# [1] = tested on: OVCAR-5
# [2] = tested on: SNB-75
# [3] = tested on: COLO 205
# [4] = tested on: SK-MEL-2
# [5] = tested on: UACC-62
# [6] = tested on: SK-MEL-28
# [7] = tested on: IGROV-1
# [8] = tested on: SNB-78
# [9] = tested on: Malme-3M
# [10] = tested on: NCI-H460
# [11] = tested on: NCI-H226
# [12] = tested on: EKVX
# [13] = tested on: M14
# [14] = tested on: UO-31
# [15] = tested on: SF-268
# [16] = tested on: ACHN
# [17] = tested on: SK-OV-3
SMILES,GI50 [1],GI50 [2],GI50 [3],GI50 [4],GI50 [5],GI50 [6],GI50 [7],GI50 [8],GI50 [9],GI50 [10],GI50 [11],GI50 [12],GI50 [13],GI50 [14],GI50 [15],GI50 [16],GI50 [17]
CC(CCc1ccc2c(c1)c(N)c1ccc(N)cc1[n+]2[O-])CC(C)(C)C (configuration not stated),1.48 µM (inactive),2.07 µM (inactive),1.45 µM (inactive),1.77 µM (inactive),1.45 µM (inactive),2.06 µM (inactive),1.49 µM (inactive),2.05 µM (inactive),1.87 µM (inactive),0.597 µM (active),1.85 µM (inactive),1.67 µM (inactive),1.75 µM (inactive),8.95 µM (inactive),2.2 µM (inactive),1.73 µM (inactive),–
CCc1ccccc1NC(=O)CC1NC(=O)CS1 (configuration not stated),> 100 µM (inactive),37.5 µM (inactive),> 100 µM (inactive),> 100 µM (inactive),> 100 µM (inactive),> 100 µM (inactive),> 100 µM (inactive),> 100 µM (inactive),55.2 µM (inactive),> 100 µM (inactive),> 100 µM (inactive),> 100 µM (inactive),> 100 µM (inactive),> 100 µM (inactive),> 100 µM (inactive),–,> 100 µM (inactive)
O=c1cc(CO)oc2c3c(cc(O)c12)OCC(COC1OC(CO)C(O)C(O)C1O)=CC3 (configuration not stated),> 100 µM (inactive),> 100 µM (inactive),> 100 µM (inactive),> 100 µM (inactive),> 100 µM (inactive),> 100 µM (inactive),> 100 µM (inactive),> 100 µM (inactive),–,> 100 µM (inactive),> 100 µM (inactive),> 100 µM (inactive),> 100 µM (inactive),> 100 µM (inactive),> 100 µM (inactive),> 100 µM (inactive),> 100 µM (inactive)
NC(=S)N/N=C1\C(=O)N(CCc2ccccc2)C(=O)C1C(=O)NCCc1ccccc1 (configuration not stated),> 100 µM (inactive),20.7 µM (inactive),> 100 µM (inactive),> 100 µM (inactive),> 100 µM (inactive),> 100 µM (inactive),> 100 µM (inactive),> 100 µM (inactive),> 100 µM (inactive),> 100 µM (inactive),> 100 µM (inactive),> 100 µM (inactive),> 100 µM (inactive),> 100 µM (inactive),> 100 µM (inactive),> 100 µM (inactive),> 100 µM (inactive)
CCOC(=O)/C(O)=C(/c1n[nH]c(=O)c2ccccc12)[N+](=O)[O-],> 100 µM (inactive),> 100 µM (inactive),> 100 µM (inactive),> 100 µM (inactive),> 100 µM (inactive),> 100 µM (inactive),> 100 µM (inactive),> 100 µM (inactive),> 100 µM (inactive),> 100 µM (inactive),> 100 µM (inactive),70.8 µM (inactive),> 100 µM (inactive),> 100 µM (inactive),> 100 µM (inactive),> 100 µM (inactive),> 100 µM (inactive)
OCCNCCOc1ccc(/C(=C(/Cl)c2ccccc2)c2ccccc2)cc1,15.1 µM (inactive),2.37 µM (inactive),3.56 µM (inactive),13.2 µM (inactive),12.5 µM (inactive),1.14 µM (inactive),10.5 µM (inactive),8.51 µM (inactive),0.246 µM (active),3.4 µM (inactive),21.6 µM (inactive),14.7 µM (inactive),1.87 µM (inactive),9.48 µM (inactive),–,–,3 µM (inactive)
c1ccc(C(c2ccccc2)c2ccccn2)cc1,> 100 µM (inactive),52.5 µM (inactive),> 100 µM (inactive),> 100 µM (inactive),> 100 µM (inactive),> 100 µM (inactive),> 100 µM (inactive),> 100 µM (inactive),> 100 µM (inactive),> 100 µM (inactive),> 100 µM (inactive),> 100 µM (inactive),> 100 µM (inactive),> 100 µM (inactive),> 100 µM (inactive),> 100 µM (inactive),> 100 µM (inactive)
O=c1c2ccccc2c2nc3ccccc3nc2n1C1CCCCC1,> 100 µM (inactive),51.9 µM (inactive),> 100 µM (inactive),> 100 µM (inactive),> 100 µM (inactive),> 100 µM (inactive),> 100 µM (inactive),> 100 µM (inactive),> 100 µM (inactive),–,> 100 µM (inactive),> 100 µM (inactive),–,> 100 µM (inactive),> 100 µM (inactive),> 100 µM (inactive),> 100 µM (inactive)
CCO/C=C1\N=C(c2ccc(Cl)c(Cl)c2)OC1=O,> 100 µM (inactive),52.1 µM (inactive),> 100 µM (inactive),> 100 µM (inactive),> 100 µM (inactive),> 100 µM (inactive),> 100 µM (inactive),> 100 µM (inactive),> 100 µM (inactive),> 100 µM (inactive),30.5 µM (inactive),41 µM (inactive),> 100 µM (inactive),36.6 µM (inactive),> 100 µM (inactive),> 100 µM (inactive),–
C=C1C(=O)OC2/C=C(\C)C(OC(C)=O)C3OC3C(C)(O)CC(OC(=O)/C(C)=C/C)C12 (configuration not stated),17.4 µM (inactive),21.9 µM (inactive),3.86 µM (inactive),6.59 µM (inactive),11 µM (inactive),4.95 µM (inactive),16.9 µM (inactive),8.3 µM (inactive),8.69 µM (inactive),15.7 µM (inactive),10 µM (inactive),18.3 µM (inactive),4.65 µM (inactive),11 µM (inactive),10.9 µM (inactive),13.5 µM (inactive),20.1 µM (inactive)
C[C@]12CC[C@H](O)CC1CCC[C@@H]2O (some centres not stated),–,> 100 µM (inactive),> 100 µM (inactive),> 100 µM (inactive),> 100 µM (inactive),> 100 µM (inactive),> 100 µM (inactive),> 100 µM (inactive),> 100 µM (inactive),> 100 µM (inactive),–,> 100 µM (inactive),> 100 µM (inactive),> 100 µM (inactive),> 100 µM (inactive),–,> 100 µM (inactive)
CCOC(=O)CN(c1ccccc1)c1nc(=[N+](C)C)ss1,–,29 µM (inactive),2.06 µM (inactive),19.8 µM (inactive),26.9 µM (inactive),26.4 µM (inactive),> 10 µM (inactive),32.4 µM (inactive),21.2 µM (inactive),–,23.8 µM (inactive),–,32.4 µM (inactive),23.7 µM (inactive),45.2 µM (inactive),35.7 µM (inactive),85.1 µM (inactive)
CC(=O)O[C@H]1C(=O)[C@@]2(C)C([C@H](OC(=O)c3ccccc3)[C@]3(O)C[C@H](OC(=O)[C@H](O)[C@H](NC(=O)c4ccccc4)c4ccc(Cl)cc4)C(C)=C1C3(C)C)C1(OC(C)=O)CO[C@@H]1C[C@@H]2O (some centres not stated),0.00294 µM (active),< 0.0001 µM (active),0.00188 µM (active),0.00594 µM (active),0.000376 µM (active),0.00157 µM (active),0.000136 µM (active),0.071 µM (active),0.00239 µM (active),0.000557 µM (active),0.00229 µM (active),0.769 µM (active),0.00224 µM (active),0.733 µM (active),0.00156 µM (active),0.261 µM (active),0.00163 µM (active)
CC1(C)c2ccccc2N2C(c3ccccc3)=NOC21C (configuration not stated),> 100 µM (inactive),> 100 µM (inactive),> 100 µM (inactive),> 100 µM (inactive),> 100 µM (inactive),> 100 µM (inactive),> 100 µM (inactive),> 100 µM (inactive),> 100 µM (inactive),> 100 µM (inactive),> 100 µM (inactive),> 100 µM (inactive),> 100 µM (inactive),> 100 µM (inactive),> 100 µM (inactive),> 100 µM (inactive),> 100 µM (inactive)
Cc1cc(Cl)ccc1NC(=O)C1C(=O)N(c2ccc(Cl)cc2C)C(=O)/C1=N\N (configuration not stated),60.5 µM (inactive),42.6 µM (inactive),56.4 µM (inactive),27 µM (inactive),35.8 µM (inactive),52.5 µM (inactive),55.1 µM (inactive),74.8 µM (inactive),71.8 µM (inactive),51.6 µM (inactive),27 µM (inactive),57.5 µM (inactive),61.2 µM (inactive),33 µM (inactive),26.5 µM (inactive),34.1 µM (inactive),97.5 µM (inactive)
CC1=C(C(=O)Nc2ccccc2)C(c2ccc(C(C)C)cc2)C(C(=O)Nc2ccccc2)=C(C)N1,17.3 µM (inactive),18.7 µM (inactive),12.9 µM (inactive),13.8 µM (inactive),13.6 µM (inactive),22.3 µM (inactive),23.2 µM (inactive),31.5 µM (inactive),15.5 µM (inactive),18.9 µM (inactive),21.3 µM (inactive),25.3 µM (inactive),18.2 µM (inactive),12.5 µM (inactive),22.3 µM (inactive),17.3 µM (inactive),22.9 µM (inactive)
Cc1c2n(c(=O)[nH]c1=O)C1OC(CO)C(N=[N+]=[N-])C1O2 (configuration not stated),–,> 100 µM (inactive),> 100 µM (inactive),> 100 µM (inactive),> 100 µM (inactive),> 100 µM (inactive),> 100 µM (inactive),> 100 µM (inactive),–,> 100 µM (inactive),> 100 µM (inactive),55.3 µM (inactive),–,> 100 µM (inactive),> 100 µM (inactive),> 100 µM (inactive),> 100 µM (inactive)
